# Results published in patent US7943584B2, “Medicinal composition containing diabetes remedy” (Sankyo Company, Limited, priority 2004, dated 2011).
# Target: T1, human pancreatic α-amylase (HPA) (Homo sapiens, UniProt P04746)
# T1 construct: purchased International Reagents Co., Ltd. Calibzyme AMY
# T1 sequence (P04746 16-511): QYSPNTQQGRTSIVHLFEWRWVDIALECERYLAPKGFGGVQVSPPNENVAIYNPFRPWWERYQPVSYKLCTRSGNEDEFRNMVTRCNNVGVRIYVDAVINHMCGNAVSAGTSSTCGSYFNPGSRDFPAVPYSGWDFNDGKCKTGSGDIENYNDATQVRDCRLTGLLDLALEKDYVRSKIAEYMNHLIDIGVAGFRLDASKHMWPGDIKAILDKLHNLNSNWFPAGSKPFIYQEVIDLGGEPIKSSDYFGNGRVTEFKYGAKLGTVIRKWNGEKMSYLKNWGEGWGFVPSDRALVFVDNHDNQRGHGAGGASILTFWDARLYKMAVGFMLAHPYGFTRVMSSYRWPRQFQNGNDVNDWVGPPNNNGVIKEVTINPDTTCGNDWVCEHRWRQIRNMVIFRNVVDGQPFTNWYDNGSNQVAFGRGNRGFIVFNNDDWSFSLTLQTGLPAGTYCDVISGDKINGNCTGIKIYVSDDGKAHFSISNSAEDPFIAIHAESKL
# Assay: α-Amylase inhibitory action (Blue Starch, Neo Amylase Test)
# Assay type: biochemical
# Settings: final concentration required for 50% inhibition of HPA solution, 37° C.
# Description: α-Amylase Inhibitory Action
# (1) Preparation of Human α-Amylase Solution
# Calibzyme AMY (International Reagents Co., Ltd.) was used for the human pancreatic α-amylase (HPA). Distilled water was added to the commercially available HPA and dissolved to a concentration of 200 IU/l to prepare the α-amylase solution. The activity of the α-amylase was measured using a commercially available α-amylase assay reagent (Neo Amylase Test Daiichi, Daiichi Pure Chemicals Co., Ltd.).
# (2) Preparation of Inhibitory Solutions
# Each test compound was prepared with distilled water to a final concentration of 0.1 to 30 μg/ml.
# (3) Measurement of Human α-Amylase Inhibitory Activity of Inhibitory Solutions
# After incubating for 10 minutes at 37° C., a Blue Starch tablet (Neo Amylase Test Daiichi, Daiichi Pure Chemicals Co., Ltd.) was added followed by stirring for about 10 seconds with a mixer, and the mixture was then heated for 30 minutes at 37° C. […] In addition, a mixture to which distilled water was added instead of α-amylase solution was used as a blank.
compound,measurement,value
"COC[C@H]1O[C@@H](O[C@H]2[C@H](O)[C@@H](O)C(O[C@H]3[C@H](O)CN[C@@H]3CO)O[C@@H]2CO)[C@H](O)[C@@H](O)[C@@H]1O (stereo partly drawn) [Reference Example 8, (2R,3R,4R)-4-Hydroxy-2-hydroxymethylpyrrolidin-3-yl 4-O-(6-methoxy-6-deoxy-β-D-glucopyranosyl)-D-glucopyranoside]",IC50,848 nM
